Test results from patent publication EP1134585B1, “Biosensor and method for the monitoring of herbicides” (CONSIGLIO NAZIONALE DELLE RICERCHE, priority 2000, dated 2001).

Experiments:
Phe216→Val = details: cited from earlier work
Vicia faba thylakoids = Vicia faba thylakoids (Vicia faba, UniProt P13910); experiment: Biosensor fluorescence response, immobilized thylakoids (Table A); type: biochemical; details: contact time 20 min
Description: (§1) According to a specially advantageous embodiment, Bioherbi is an equipment weighing in all about […], occupies a space of about 30x30x20 cm and is constituted as reported below. • a) flow cell wherein the biomediator is immobilized. […] The black plastic material allows to fit the biomediator in the dark. The biomediator in entrapped in the inner section. The surface tightness of the reading hole is obtained using a glass cover plate for microscopy. The inner cell, where the mediator is entrapped, has un volume from 50 to 300 µl. • b) a peristaltic pump is the hydraulic part to withdraw the sample containing the herbicide to be analyzed, which moves said sample through the flow cell and brings it in close contact with the biomediator. According to a specially advantageous embodiment a single block is used as holder for the herbicide and peristaltic pump. The flow can be varied from 0,2 to 2 ml/min depending on the sample. Higher flow increases the sensitivity to the herbicide because the latter interacts with a higher number of bonding sites on PS II. By laboratory tests it was found out that, when the solution of the herbicide flows, the efficiency of the fluorescence measure could be impaired by light scattering effects. Accordingly it is preferred to carry out the measure in stopped-flow conditions using a flow switch. The biomediator immobilized within the flow cell, following each measure, is washed and regenerated by a suitable buffer solution. A valve allows to forward alternatively the flow of the buffer or the solution containing the herbicide to be analyzed. • c) optical fiber fluorescence sensor closely connected to the flow cell. The fluorescence emitted from green plants depends on the photosynthetic activity. Recent studies on fluorescence measuring techniques made this feature a very important tool in the basic and applied research about the plant physiology (D Lazar, 1999, Biochim Biophys Acta 1-28). Bioherbi analyzer measures the fluorescence emitted from photosynthetic complexes and modifications determined by the presence of herbicide. The sensor is tightly connected to the flow cell to avoid any infiltration of external light and provides the excitation light detecting the fluorescence signal. The excitation light is emitted from an emitting diode at a very narrow wavelength of about 650 nm, which is quickly absorbed by the Photosystem II of the photosynthetic organisms and has the advantage in that it provides light with reduced heating and emits the signal very quickly. A "feedback" optical circuit controls and adjusts the variations of the intensity of the emitted light also resulting from variations of ambient temperature. The analyzer consists of an high capacity photodiode associated to an amplifier. The optical system responds perfectly to the fluorescence emission wavelength of 700 nm and stops the reflection light of lower wavelength resulting from the emission light. The sensor is connected to the control computer by an about 30 cm long fiber. According to a variation of the biosensor we used a more complex fluorescence system, adjustable as the excitation light in order to allow the use, as biomediator, of photosynthetic organisms requiring specific wavelengths. • e) a control and data processing computer. […] The concentration of the herbicide is proportional to the area over the fluorescence curve (Table 1A-B); the inhibition of this area is closely related to the washing times whereby it is possible to determinate the concentration of the herbicide also using the washing time required to obtain an almost complete inhibition of the area (see Table 1C). The fluorescence signal received by the sensor is processed within the control chamber by transduction systems of the signal and analog-to-digital converters. The system is computerized with a very sophisticated microprocessor able to process the data of the fluorescence signal. […]

[1] = tested on: thylakoids from Amaranthus retroflexus, Wild-type; experiment: Biosensor fluorescence response (Table D), wild-type biomediator; type: biochemical; details: herbicide concentration 10^-6 M
Thr226->Met = details: cited from earlier work
I1e229->Ala = details: cited from earlier work
Phe216->Leu = details: cited from earlier work
D1 protein Asn266->Asp = details: code loxlla; cited from earlier work
Phe216->Thr = details: cited from earlier work
D1 protein A/a251->lIe = D1 protein A/a251->lIe (Chlamydomonas reinhardtii, UniProt P07753, A251I); details: cited from earlier work
Gly228->Arg = details: cited from earlier work
PS II = PS II treated with CdCl2, refrigeration at 5°C, flow 0,2-2,0 ml/m
Description: To further increase the stability of the biomediator the usefulness of a system for the refrigeration of the solution containing herbicide forwarded into the measuring cell experimentally was observed.

[2] = tested on: PS II isolated from thermophilic cyanobacteria; details: immobilized PS II, Clark electrode (Koblizek et al.); cited from earlier work
[3] = target: T1, thylakoids from Spinacia oleracea (Spinacia oleracea, UniProt P69560); experiment: Biosensor fluorescence response (Tables B and C); type: biochemical; details: for inhibition at 0.01 µM: control printed as 100
T1 construct: biomediator based on thylakoids from Spinacia oleracea; from tissue; host or cells: thylakoids isolated from mature spinach plants
Description: as §1

Thr226->Ala = details: cited from earlier work
I1e228->Leu = details: cited from earlier work
I1e229->Cys = details: cited from earlier work
Gly228->Val = details: cited from earlier work
D1 protein Phe255->Tyr [4] = target: D1 protein Phe255->Tyr (Chlamydomonas reinhardtii, UniProt P07753, F255Y); details: code Ar207+; cited from earlier work
Tyr222->Phe = details: code T4; cited from earlier work
[5] = target: D1 protein Phe211→Ala Met214→Thr (Chlamydomonas reinhardtii, UniProt P07753, F211A/M214T); details: cited from earlier work
I1e229→Met = details: R. capsulatus; cited from earlier work
monoclonal antibodies = details: ELISA (Schneider et al. 1994); cited from earlier work
[6] = tested on: thylakoids from Amaranthus retroflexus, Mutant; type: biochemical; details: herbicide concentration 10^-6 M
PhC2,6―Pro = details: cited from earlier work
D1 protein Val219->Ile = D1 protein Val219->Ile (Chlamydomonas reinhardtii, UniProt P07753, V219I); details: code Dr2; cited from earlier work
D1 protein Ser264->Ala [7] = target: D1 protein Ser264->Ala (Chlamydomonas reinhardtii, UniProt P07753, S264A); details: codes MZ1 MZ3 MZ5; cited from earlier work
D1 protein Ser264->Thr = details: Euglena, code MSI; cited from earlier work
[8] = target: D1 protein Leu275->Phe (MZ4) (Chlamydomonas reinhardtii, UniProt P07753, L275F); details: code MZ4; cited from earlier work
[9] = target: D1 protein Ala250→Ser Phe255→IIe (Chlamydomonas reinhardtii, UniProt P07753, A250S/F255I); details: cited from earlier work
[10] = target: D1 protein Ser264→Ala Asn266→Thr (Chlamydomonas reinhardtii, UniProt P07753, N266T/S264A); details: cited from earlier work
[11] = target: D1 protein I1e259->Ser Ser264->Ala Asn266->Thr (Chlamydomonas reinhardtii, UniProt P07753, I259S/N266T/S264A); details: cited from earlier work
[12] = target: D1 protein Phe211→Gly Met214→Gln (Chlamydomonas reinhardtii, UniProt P07753, F211G/M214Q); details: cited from earlier work
D1 protein Ala250->Asp = D1 protein Ala250->Asp (Chlamydomonas reinhardtii, UniProt P07753, A250D); details: cited from earlier work
D1 protein Arg257->Val = D1 protein Arg257->Val (Synechocystis sp., UniProt P16033, R257V); details: cited from earlier work
D1 protein A1a250->Tyr = D1 protein A1a250->Tyr (Chlamydomonas reinhardtii, UniProt P07753, A250Y); details: cited from earlier work
D1 protein Ala250->Arg = D1 protein Ala250->Arg (Chlamydomonas reinhardtii, UniProt P07753, A250R); details: cited from earlier work
[13] = target: D1 protein Phe255->Tyr Ser264->Ala (Synechococcus elongatus, UniProt P04996, F255Y/S264A); details: code D5; cited from earlier work
D1 protein Ser264->Ala [14] = target: D1 protein Ser264->Ala (Synechococcus elongatus, UniProt P04996, S264A); details: Synechococcus sp. PCC7942, code Dil; cited from earlier work
[15] = target: D1 protein Phe211->Ile Met214->Gly (Chlamydomonas reinhardtii, UniProt P07753, F211I/M214G); details: cited from earlier work
D1 protein A1a251→Gly = D1 protein A1a251→Gly (Chlamydomonas reinhardtii, UniProt P07753, A251G); details: cited from earlier work
D1 protein Phe255->Tyr [16] = target: D1 protein Phe255->Tyr (Synechococcus elongatus, UniProt P04996, F255Y); details: Synachococcus PCC7942, code TyrS; cited from earlier work
D1 protein Ala250->Asn = D1 protein Ala250->Asn (Chlamydomonas reinhardtii, UniProt P07753, A250N); details: cited from earlier work
[17] = Diuron 10^-9 M, after regeneration
[18] = Table B, first column Diuron 10^-8 M, contact time 15 min
[19] = Table B, second column Diuron 10^-8 M, contact time 15 min

CN(C)C(=O)Nc1ccc(Cl)c(Cl)c1 [Diuron]
Resistance R/S (Phe216→Val): Diuron 1 | Area (Vicia faba thylakoids; Diuron 10^-6 M, area over the fluorescence curve): 10300 | inhibition at 1 µM (Vicia faba thylakoids; Diuron 10^-6 M, inhibition of area vs control): 93% | Fv/Fm (Vicia faba thylakoids; Diuron 10^-6 M, mean of at least three measures): 0,540 | Area (Vicia faba thylakoids; [17]): 4030 | Fv/Fm (Vicia faba thylakoids; [17]): 0,475 | inhibition at 0.001 µM (Vicia faba thylakoids; [17]): 60% | Area % inhibition Wild-type [1]: 99% | Resistance R/S (Thr226->Met): Diuron 1 | Resistance R/S (I1e229->Ala): Diuron 1 | Resistance R/S (Phe216->Leu): Diuron 1 | Supersensitivity R/S (D1 protein Asn266->Asp): Diuron 0,7 | Resistance R/S (Phe216->Thr): Diuron 1 | Supersensitivity R/S (D1 protein A/a251->lIe): Diuron 0,6 | Resistance R/S (Gly228->Arg): Diuron 1 | sensitivity (concentration) (PS II): lower than nanomolar | sensitivity [2]: 10^-10 mol/l | Area [3, 18]: 12700 | Fv/Fm [3, 18]: 0,768 | inhibition at 0.01 µM [3, 18]: 88% | Area [3, 19]: 10400 | Fv/Fm [3, 19]: 0,756 | inhibition at 0.01 µM [3, 19]: 71% | Area ([3]; Table C, Diuron 10^-7M, 10 min): 7830 | Fv/Fm ([3]; Table C, Diuron 10^-7M, 10 min): 0,746 | inhibition at 0.1 µM ([3]; Table C, Diuron 10^-7M, 10 min): 32% | Area ([3]; Table C, Diuron 10^-7M, 40 min): 6120 | Fv/Fm ([3]; Table C, Diuron 10^-7M, 40 min): 0,711 | inhibition at 0.1 µM ([3]; Table C, Diuron 10^-7M, 40 min): 47% | Area ([3]; Table C, Diuron 10^-7M, 50 min): 5090 | Fv/Fm ([3]; Table C, Diuron 10^-7M, 50 min): 0,700 | inhibition at 0.1 µM ([3]; Table C, Diuron 10^-7M, 50 min): 56% | Area ([3]; Table C, Diuron 10^-7M, 60 min): 4160 | Fv/Fm ([3]; Table C, Diuron 10^-7M, 60 min): 0,684 | inhibition at 0.1 µM ([3]; Table C, Diuron 10^-7M, 60 min): 64% | Resistance R/S (Thr226->Ala): Diuron 1 | Resistance R/S (I1e228->Leu): Diuron 1 | Resistance R/S (I1e229->Cys): Diuron 1 | Resistance R/S (Gly228->Val): Diuron 1 | Supersensitivity R/S (D1 protein Phe255->Tyr [4]): Diuron 0,6-0,8 | Supersensitivity R/S (Tyr222->Phe): Diuron <0,0001 | Supersensitivity R/S [5]: Diuron 0,8 | Resistance R/S (I1e229→Met): Diuron 1 | sensitivity (monoclonal antibodies): 200 pM | Area % inhibition Mutant [6]: 96% | Resistance R/S (PhC2,6―Pro): patron 1

O=c1[nH]c2c(c(=O)n1C1CCCCC1)CCC2 [Lenacil]
Supersensitivity R/S (D1 protein Val219->Ile): Lenacil 0,8

N#Cc1cc(I)c(O)c(I)c1 [loxynil]
Supersensitivity R/S (D1 protein Ser264->Ala [7]): loxynil 0,5 | Supersensitivity R/S (D1 protein Ser264->Thr): loxynil 0,2 | Supersensitivity R/S [8]: locynil 0,2 | sensitivity (concentration) (PS II): one order of magnitude higher | Supersensitivity R/S [9]: loxynil 0,2 | Supersensitivity R/S [10]: loxynil 0,8 | Supersensitivity R/S [11]: loxynil 0,13 | Supersensitivity R/S [12]: loxynil 0,8 | Supersensitivity R/S (D1 protein Ala250->Asp): loxynil 0,2 | Supersensitivity R/S (D1 protein Arg257->Val): loxynil 0,8 | Supersensitivity R/S (D1 protein A1a250->Tyr): loxynil 0,8 | Supersensitivity R/S (D1 protein Ala250->Arg): loxynil 0,5 | Supersensitivity R/S [13]: loxynil 0,5 | Supersensitivity R/S (Tyr222->Phe): Iloxynil <0,01 | Supersensitivity R/S (D1 protein Ser264->Ala [14]): loxynil 0,4

CSc1nnc(C(C)(C)C)c(=O)n1N [Metribuzin]
Supersensitivity R/S [9]: 0,5 | Supersensitivity R/S [15]: 0,5 | Supersensitivity R/S (D1 protein A1a251→Gly): Metribuzin 0,6 | Supersensitivity R/S (D1 protein Phe255->Tyr [16]): Metribuzin 0,8 | Supersensitivity R/S (D1 protein Ala250->Arg): Metribuzin 0,5 | Supersensitivity R/S (D1 protein Phe255->Tyr [4]): Metribuzin 0,6 | Supersensitivity R/S (D1 protein Ala250->Asn): Metribuzin 0,8
